From patent publication US11752165B2, “Basic chemotherapeutic intratumour injection formulation” (US NANO FOOD & DRUG, INC., priority 2020, dated 2023)
≈ marks a conversion by molar mass, not a printed value. Entries after “also recorded” stand apart in the source; their conditions may differ. Structures can show the parent of a compound that is named as a salt. Where two headings read alike, the source gives them in different places.

How the values were obtained:
[1] = cited from earlier work; for Solubility in water (in words): background statement
[2] = background statement, cited from earlier work
[3] = background statement; cited from earlier work
[4] = Solubility in water; conditions: for Solubility in water (in words): detailed description; for Solubility in H2O: Table 2, yes/no
[5] = Stability of the basic (free base) chemical; conditions: detailed description
[6] = Solubility in oil, ethanol and other organic liquids; conditions: for Solubility in organic liquids (in words): detailed description; for Solubility in ethanol / Solubility in oil: Table 2, yes/no
[7] = 5 mg/mL aqueous solution; cited from earlier work
[8] = assay type: physicochemical
[9] = cited from earlier work
[10] = tested on: mice; conditions: mouse, in vivo, ip; cited from earlier work
[11] = serum, rapid intravenous injection, patients with cancer

Compound: COc1cccc2c1C(=O)c1c(O)c3c(c(O)c1C2=O)C[C@@](O)(C(C)=O)C[C@@H]3O[C@H]1C[C@H](N)[C@H](O)[C@H](C)O1 [Daunorubicin base, daunorubicin]
- Solubility in water (in words) [1]: insoluble in water
- Solubility in organic liquids (in words) [2]: slightly soluble in an organic liquid
- Stability of the basic chemical (in words) [3]: unstable
- Solubility in water (in words) [4]: insoluble in water
- Stability of the base form (in words) [5]: not stable in base form
- Solubility in organic liquids (in words) [6]: slightly soluble in an organic liquid such as oleic acid, PEG and ethanol

Compound: COc1cccc2c1C(=O)c1c(O)c3c(c(O)c1C2=O)C[C@@](O)(C(C)=O)C[C@@H]3O[C@H]1C[C@H](N)[C@H](O)[C@H](C)O1 [Daunorubicin hydrochloride]
- Solubility in water (in words) ([1]; hydrochloride): soluble in water

Compound: COc1cccc2c1C(=O)c1c(O)c3c(c(O)c1C2=O)C[C@@](O)(C(=O)CO)C[C@@H]3O[C@H]1C[C@H](N)[C@H](O)[C@H](C)O1 [Doxorubicin Hydrochloride]
- pH of aqueous solution [7]: 4.0-5.5
- Solubility in water (in words) ([1]; hydrochloride): soluble in water

Compound: COc1cccc2c1C(=O)c1c(O)c3c(c(O)c1C2=O)C[C@@](O)(C(=O)CO)C[C@@H]3O[C@H]1C[C@H](N)[C@H](O)[C@H](C)O1 [Doxorubicin base, doxorubicin]
- pH in water ([8]; 10 mg in 5 ml of water): 7.9
- Solubility in water (in words) [1]: insoluble in water
- Solubility in organic liquids (in words) [2]: slightly soluble in an organic liquid
- Stability of the basic chemical (in words) [3]: unstable
- Solubility in organic liquids (in words) [6]: slightly soluble alcohols; also recorded: moderately soluble in anhydrous methanol

Compound: COc1cccc2c1C(=O)c1c(O)c3c(c(O)c1C2=O)C[C@@](O)(C(=O)CO)C[C@@H]3O[C@H]1C[C@H](N)[C@@H](O)[C@H](C)O1 [Epirubicin hydrochloride]
- Solubility in water (in words) ([1]; hydrochloride): soluble in water

Compound: O=C1c2c(O)ccc(O)c2C(=O)c2c(NCCNCCO)ccc(NCCNCCO)c21 [Mitoxantrone base, mitoxantrone]
- pH in water ([8]; 25 mg in 10 ml water): 9.42
- Solubility in water (in words) [1]: insoluble in water
- Solubility in organic liquids (in words) [2]: slightly soluble in an organic liquid
- Solubility in water (in words) [4]: sparingly soluble in water
- Stability of the base form (in words) [5]: the basic form is stable
- Solubility in organic liquids (in words) [6]: slightly soluble in methanol; also recorded: practically insoluble in acetonitrile chloroform and acetone

Compound: CC[C@]1(O)C[C@@H]2CN(CCc3c([nH]c4ccccc34)[C@@](C(=O)OC)(c3cc4c(cc3OC)N(C)[C@H]3[C@@](O)(C(=O)OC)[C@H](OC(C)=O)[C@]5(CC)C=CCN6CC[C@]43[C@@H]65)C2)C1 [Vinblastine sulphate]
- Crossing of the blood brain barrier (in words) ([9]; following IV administration): crosses the blood brain barrier poorly
- Solubility in water (in words) [1]: One part is soluble in 10 parts of water
- Solubility in H2O ([4]; listed as Vinblastine H2SO4): yes
- Solubility in water (in words) ([4]; listed as Vinblastine sulfate): soluble in water
- Solubility in ethanol ([6]; listed as Vinblastine H2SO4): no
- Solubility in oil ([6]; listed as Vinblastine H2SO4): no

Compound: CC[C@]1(O)C[C@@H]2CN(CCc3c([nH]c4ccccc34)[C@@](C(=O)OC)(c3cc4c(cc3OC)N(C)[C@H]3[C@@](O)(C(=O)OC)[C@H](OC(C)=O)[C@]5(CC)C=CCN6CC[C@]43[C@@H]65)C2)C1 [Vinblastine]
- Initial half-life [9, 11]: 3.7 min
- Middle half-life [9, 11]: 1.6 h
- Terminal half-life [9, 11]: 24.8 h
- Solubility in water (in words) ([1]; listed as vinblastine): insoluble in water
- Solubility in organic liquids (in words) ([2]; listed as vinblastine): slightly soluble in an organic liquid
- Solubility in H2O [4]: no
- Solubility in water (in words) [4]: practically insoluble in water
- Solubility in water (in words) ([4]; listed as vinblastine base): not soluble in water
- Stability of the base form (in words) [5]: unstable at room temperature
- Solubility in ethanol [6]: yes
- Solubility in oil [6]: yes
- Solubility in organic liquids (in words) [6]: soluble in alcohol, acetone, chloroform, ethyl acetate

Compound: CC[C@]1(O)C[C@H]2CN(CCc3c([nH]c4ccccc34)[C@@](C(=O)OC)(c3cc4c(cc3OC)N(C=O)[C@H]3[C@@](O)(C(=O)OC)[C@H](OC(C)=O)[C@]5(CC)C=CCN6CC[C@]43[C@@H]65)C2)C1 [Vincristine sulfate]
- Solubility in water (in words) [1]: freely soluble in water
- Solubility in H2O ([4]; listed as Vincristine H2SO4): yes
- Solubility in ethanol ([6]; listed as Vincristine H2SO4): no
- Solubility in oil ([6]; listed as Vincristine H2SO4): no

Compound: CC[C@]1(O)C[C@H]2CN(CCc3c([nH]c4ccccc34)[C@@](C(=O)OC)(c3cc4c(cc3OC)N(C=O)[C@H]3[C@@](O)(C(=O)OC)[C@H](OC(C)=O)[C@]5(CC)C=CCN6CC[C@]43[C@@H]65)C2)C1 [Vincristine]
- Solubility in water ([1]; 25° C.): 2.27 µg/mL (≈ 2.75 µM)
- Solubility in water (in words) [1]: practically insoluble in water
- Solubility in water (in words) ([1]; listed as vincristine): insoluble in water
- Solubility in organic liquids (in words) [2]: soluble in alcohol, acetone, and chloroform
- Solubility in organic liquids (in words) ([2]; listed as vincristine): slightly soluble in an organic liquid
- Stability of the basic chemical (in words) [3]: unstable
- LD50 [10]: 5.2 mg/kg
- Solubility in H2O [4]: no
- Solubility in water (in words) [4]: not soluble in water
- Solubility in ethanol [6]: yes
- Solubility in oil [6]: yes

Compound: CC[C@]1(O)C[C@@H]2CN(CCc3c([nH]c4ccccc34)[C@@](C(=O)OC)(c3cc4c(cc3OC)N(C)[C@H]3[C@@](O)(C(N)=O)[C@H](O)[C@]5(CC)C=CCN6CC[C@]43[C@@H]65)C2)C1 [Vindesine]
- Solubility in water (in words) [1]: insoluble in water
- Solubility in organic liquids (in words) [2]: slightly soluble in an organic liquid
- Stability of the basic chemical (in words) [3]: unstable
- Solubility in H2O [4]: no
- Solubility in water (in words) [4]: practically insoluble in water
- Stability of the base form (in words) [5]: not stable
- Solubility in ethanol [6]: yes
- Solubility in oil [6]: yes
- Solubility in organic liquids (in words) [6]: soluble in alcohol, acetone

Compound: COc1cccc2c1C(=O)c1c(O)c3c(c(O)c1C2=O)C[C@@](O)(C(=O)CO)C[C@@H]3O[C@H]1C[C@H](N)[C@@H](O)[C@H](C)O1 [epirubicin base, epirubicin]
- Solubility in water (in words) [1]: insoluble in water
- Solubility in organic liquids (in words) [2]: slightly soluble in an organic liquid
- Stability of the basic chemical (in words) [3]: unstable
- Solubility in water [4]: 0.093 mg per ml
- Solubility in water (in words) [4]: insoluble in water

Compound: C=C1C[C@@H]2CC[C@@]34C[C@H]5O[C@H]6[C@@H](O3)[C@H]3O[C@H](CC[C@@H]3O[C@H]6[C@H]5O4)CC(=O)C[C@@H]3[C@@H](OC)[C@@H](C[C@H](O)CN)O[C@H]3C[C@H]3O[C@@H](CC[C@@H]1O2)C[C@@H](C)C3=C [eribulin]
- Solubility in water (in words) [1]: insoluble in water
- Solubility in organic liquids (in words) [2]: slightly soluble in an organic liquid
- Stability of the basic chemical (in words) [3]: unstable
